Experimental data: patent publication US20230000813A1, “COMPOUND FOR THE TREATMENT OF BOVINE OR SWINE RESPIRATORY DISEASE” (Intervet Inc., priority 2016, published 2023)
In brackets after ≈: the same amount, converted by molar mass.

What was measured:
Assay in all cases: MIC, broth-microdilution (CLSI VET01-A4)
Format in all cases: cell-based
[1] = tested on: Mannheimia haemolytica MH 12587 (1071, BRD field isolate, macrolide-resistance: erm+, E+); settings: Mannheimia haemolytica MH 12587, macrolide-resistant
Experimental: (§1) The Minimum inhibitory concentrations (MIC) of compounds according to the invention for a number of veterinary bacterial pathogens were determined by the broth-microdilution method according to CLSI document VET01-A4.
(§2) Microdilution trays containing a doubling dilution series of the test compound were used for the tests. The MIC results were interpreted according to the CLSI documents VET01-S3. The lowest concentration of compound at which no visible growth (i.e. no turbidity) detected by the unaided eye was recorded as the MIC.
(§3) The Minimum inhibitory concentrations (MIC) of compounds according to the invention were determined by the broth-microdilution method according to CLSI document VET01-A4.
(§4) Microdilution trays containing a doubling dilution series of the test compound were used for the tests.
(§5) The MIC results were interpreted according to the CLSI documents VET01-S3. The lowest concentration of compound at which no visible growth (i.e. no turbidity) detected by the unaided eye was recorded as the MIC.

[2] = tested on: Mannheimia haemolytica MH 6357 (M7/2, reference strain, cattle infection strain); settings: Mannheimia haemolytica MH 6357; read-out: MIC MH 6357
Experimental: as §1, §2, §3, §4, §5

[3] = tested on: Mannheimia haemolytica MH 6374 (ATCC 33396, reference strain); settings: Mannheimia haemolytica MH 6374; read-out: MIC MH 6374
Experimental: as §1, §2, §3, §4, §5

[4] = tested on: Pasteurella multocida PM 10775 (080130003051, BRD field isolate); settings: Pasteurella multocida PM 10775
Experimental: as §1, §2, §3, §4, §5

[5] = tested on: Pasteurella multocida PM 12080 (IV102277-0093, BRD field isolate); settings: Pasteurella multocida PM 12080; for MIC: read-out: MIC PM 12080
Experimental: as §1, §2, §3, §4, §5

[6] = tested on: Pasteurella multocida PM 6267 (P 2225 (L386), reference strain, mouse infection strain); settings: Pasteurella multocida PM 6267; for MIC: read-out: MIC PM 6267
Experimental: as §1, §2, §3, §4, §5

[7] = tested on: Pasteurella multocida PM 6391 (ATCC 43137, reference strain); settings: Pasteurella multocida PM 6391; for MIC: read-out: MIC PM 6391
Experimental: as §1, §2, §3, §4, §5

[8] = tested on: Mannheimia haemolytica MH 13065 (XB0446-6003.9, BRD field isolate)
Experimental: as §1, §2

[9] = tested on: Mannheimia haemolytica MH 13093 (XB0472-6014.1, BRD field isolate)
Experimental: as §1, §2

[10] = tested on: Mannheimia haemolytica MH 10720 (154, BRD field isolate); settings: Mannheimia haemolytica MH 10720; for MIC: read-out: MIC MH 10720
Experimental: as §1, §2, §3, §4, §5

Compound | MIC MH 12587 [1] [µM] | MIC [2] [µM] | MIC [3] [µM] | MIC PM 10775 [4] | MIC [5] [µM] | MIC PM 6267 [6] | MIC [7] [µM] | MIC [8] [µM] | MIC [9] [µM] | MIC PM 12080 [5] | MIC PM 6391 [7] | MIC [6] [µM] | MIC [10] [µM] | MIC MH 10720 [10]
C[C@@H](O)[C@H](NC(=O)c1ccc(C#Cc2ccc(CNCC3CCCO3)s2)cc1)C(=O)NO (stereo partly drawn) [C. 412] | 1.6 (≈ 0.732 µg/mL) | 0.8 (≈ 0.366 µg/mL) | 0.8 (≈ 0.366 µg/mL) | <=0.1 μM | 0.4 (≈ 0.183 µg/mL) | <=0.1 μM | 0.2 (≈ 0.0915 µg/mL) | 0.8 (≈ 0.366 µg/mL) | 1.6 (≈ 0.732 µg/mL) |  |  |  |  | 
C[C@@H](O)[C@H](NC(=O)c1ccc(C#Cc2ccc(CNC3CC3)nc2)cc1)C(=O)NO [C. 413] | 0.8 (≈ 0.327 µg/mL) | 0.4 (≈ 0.163 µg/mL) | 0.8 (≈ 0.327 µg/mL) | <=0.1 μM |  | <=0.1 μM |  | 0.4 (≈ 0.163 µg/mL) | 0.4 (≈ 0.163 µg/mL) | <=0.1 μM | <=0.1 μM |  |  | 
C=CCNCc1ccc(C#Cc2ccc(C(=O)N[C@H](C(=O)NO)[C@@H](C)O)cc2)cn1 [C. 415] | 1.6 (≈ 0.654 µg/mL) | 0.8 (≈ 0.327 µg/mL) | 1.6 (≈ 0.654 µg/mL) | <=0.1 μM | 0.4 (≈ 0.163 µg/mL) |  | 0.2 (≈ 0.0817 µg/mL) | 0.4 (≈ 0.163 µg/mL) | 1.6 (≈ 0.654 µg/mL) |  |  | 0.2 (≈ 0.0817 µg/mL) |  | 
C=CCNCc1ccc(C#Cc2ccc(C(=O)NC(C(=O)NO)C(C)(C)N)cc2)s1 (stereo not drawn) [C. 522] | 1.6 (≈ 0.682 µg/mL) | 1.6 (≈ 0.682 µg/mL) | 0.4 (≈ 0.171 µg/mL) |  |  |  | 0.2 (≈ 0.0853 µg/mL) | 0.8 (≈ 0.341 µg/mL) | 1.6 (≈ 0.682 µg/mL) | <=0.1 μM |  | 1.6 (≈ 0.682 µg/mL) | 0.2 (≈ 0.0853 µg/mL) | 
C[C@@H](O)[C@H](NC(=O)c1ccc(C#Cc2ccc(CNC3CC3)s2)cc1)C(=O)NO [Compound 398] | 0.4 (≈ 0.165 µg/mL) | 0.4 (≈ 0.165 µg/mL) | 0.8 (≈ 0.331 µg/mL) | <=0.1 μM |  | <=0.1 μM |  | 0.2 (≈ 0.0827 µg/mL) | 0.2 (≈ 0.0827 µg/mL) | <=0.1 μM | <=0.1 μM |  |  | 
C[C@@H](O)[C@H](NC(=O)c1ccc(C#Cc2ccc(CNCc3ccncc3)s2)cc1)C(=O)NO [Compound 401] | 0.8 (≈ 0.372 µg/mL) | 0.4 (≈ 0.186 µg/mL) | 0.8 (≈ 0.372 µg/mL) | <=0.1 μM | 0.2 (≈ 0.0929 µg/mL) | <=0.1 μM | 0.2 (≈ 0.0929 µg/mL) | 0.4 (≈ 0.186 µg/mL) | 0.8 (≈ 0.372 µg/mL) |  |  |  |  | 
COc1ccc(CNCc2ccc(C#Cc3ccc(C(=O)NC(C(=O)NO)C(C)(C)N)cc3)cc2)cc1 (stereo not drawn) [Compound 513] | 1.6 (≈ 0.801 µg/mL) | 1.6 (≈ 0.801 µg/mL) | 0.8 (≈ 0.4 µg/mL) |  | 0.2 (≈ 0.1 µg/mL) |  | 0.2 (≈ 0.1 µg/mL) | 1.6 (≈ 0.801 µg/mL) | 1.6 (≈ 0.801 µg/mL) |  |  | 1.6 (≈ 0.801 µg/mL) | 0.2 (≈ 0.1 µg/mL) | 
CC(C)(N)C(NC(=O)c1ccc(C#Cc2ccc(CNCc3ccccc3)s2)cc1)C(=O)NO (stereo not drawn) [Compound 525] | 1.6 (≈ 0.763 µg/mL) | 0.8 (≈ 0.381 µg/mL) | 0.4 (≈ 0.191 µg/mL) |  |  |  | 0.2 (≈ 0.0953 µg/mL) | 0.8 (≈ 0.381 µg/mL) | 0.8 (≈ 0.381 µg/mL) | <=0.1 μM |  | 1.6 (≈ 0.763 µg/mL) | 0.2 (≈ 0.0953 µg/mL) | 
COc1ccc(CNCc2ccc(C#Cc3ccc(C(=O)NC(C(=O)NO)C(C)(C)N)cc3)s2)cc1 (stereo not drawn) [Compound 526] | 1.6 (≈ 0.811 µg/mL) | 0.8 (≈ 0.405 µg/mL) | 0.4 (≈ 0.203 µg/mL) |  | 0.2 (≈ 0.101 µg/mL) |  | 0.2 (≈ 0.101 µg/mL) | 0.8 (≈ 0.405 µg/mL) | 1.6 (≈ 0.811 µg/mL) |  |  | 1.6 (≈ 0.811 µg/mL) | 0.2 (≈ 0.101 µg/mL) | 
CC(C)(N)C(NC(=O)c1ccc(C#Cc2ccc(CNCc3ccncc3)s2)cc1)C(=O)NO (stereo not drawn) [Compound 527] | 0.8 (≈ 0.382 µg/mL) | 0.8 (≈ 0.382 µg/mL) | 0.8 (≈ 0.382 µg/mL) |  |  |  |  | 0.8 (≈ 0.382 µg/mL) | 1.6 (≈ 0.764 µg/mL) | <=0.1 μM | <=0.1 μM | 1.6 (≈ 0.764 µg/mL) | 0.2 (≈ 0.0955 µg/mL) | 
CC(C)(N)C(NC(=O)c1ccc(C#Cc2ccc(CNCc3cccnc3)s2)cc1)C(=O)NO (stereo not drawn) [Compound 532] | 1.6 (≈ 0.764 µg/mL) | 1.6 (≈ 0.764 µg/mL) | 0.8 (≈ 0.382 µg/mL) |  |  |  |  | 0.8 (≈ 0.382 µg/mL) | 1.6 (≈ 0.764 µg/mL) | <=0.1 μM | <=0.1 μM | 1.6 (≈ 0.764 µg/mL) | 0.2 (≈ 0.0955 µg/mL) | 
CC(C)(N)C(NC(=O)c1ccc(C#Cc2ccc(CNCc3ccnc(Cl)c3)s2)cc1)C(=O)NO (stereo not drawn) [Compound 533] | 1.6 (≈ 0.819 µg/mL) | 0.8 (≈ 0.41 µg/mL) | 0.8 (≈ 0.41 µg/mL) |  |  |  | 0.2 (≈ 0.102 µg/mL) | 0.8 (≈ 0.41 µg/mL) | 0.8 (≈ 0.41 µg/mL) | <=0.1 μM |  | 1.6 (≈ 0.819 µg/mL) | 0.2 (≈ 0.102 µg/mL) | 
CC(C)(N)C(NC(=O)c1ccc(C#Cc2ccc(CNCc3ccccn3)s2)cc1)C(=O)NO (stereo not drawn) [Compound 534] | 1.6 (≈ 0.764 µg/mL) | 0.8 (≈ 0.382 µg/mL) | 0.8 (≈ 0.382 µg/mL) |  |  |  |  | 0.8 (≈ 0.382 µg/mL) | 1.6 (≈ 0.764 µg/mL) | <=0.1 μM | <=0.1 μM | 1.6 (≈ 0.764 µg/mL) | 0.2 (≈ 0.0955 µg/mL) | 
CC(C)(N)C(NC(=O)c1ccc(C#Cc2ccc(CNCc3ccco3)s2)cc1)C(=O)NO (stereo not drawn) [Compound 535] | 0.8 (≈ 0.373 µg/mL) | 0.8 (≈ 0.373 µg/mL) | 0.2 (≈ 0.0933 µg/mL) |  |  |  |  | 0.4 (≈ 0.187 µg/mL) | 0.8 (≈ 0.373 µg/mL) | <=0.1 μM | <=0.1 μM | 0.8 (≈ 0.373 µg/mL) |  | <=0.1 μM
CC(C)(N)C(NC(=O)c1ccc(C#Cc2ccc(CNCc3cccs3)s2)cc1)C(=O)NO (stereo not drawn) [Compound 536] | 0.8 (≈ 0.386 µg/mL) | 0.8 (≈ 0.386 µg/mL) | 0.2 (≈ 0.0965 µg/mL) |  |  |  |  | 0.4 (≈ 0.193 µg/mL) | 0.8 (≈ 0.386 µg/mL) | <=0.1 μM | <=0.1 μM | 0.8 (≈ 0.386 µg/mL) |  | <=0.1 μM
Cc1ccc(CNCc2ccc(C#Cc3ccc(C(=O)NC(C(=O)NO)C(C)(C)N)cc3)s2)cc1 (stereo not drawn) [Compound 537] | 1.6 (≈ 0.785 µg/mL) | 0.8 (≈ 0.393 µg/mL) | 0.8 (≈ 0.393 µg/mL) |  |  |  | 0.2 (≈ 0.0981 µg/mL) | 0.8 (≈ 0.393 µg/mL) | 1.6 (≈ 0.785 µg/mL) | <=0.1 μM |  | 1.6 (≈ 0.785 µg/mL) | 0.2 (≈ 0.0981 µg/mL) | 
